Experimental data as given in the supplement of paper PMC10307832.

compound: COc1cccc2cc(-c3nc([C@H]4CC[C@H](C(=O)O)CC4)n4ncnc(N)c34)[nH]c12 [OSI-027] + O=C(CCCCCCC(=O)Nc1ccccc1)NO [Vorinostat] (partner 1 µM); test: relative viability (nuclei count vs DMSO), 5 days (fraction); higher = more cells survive; details: first compound 0.01 µM
Procedure, shortened: (§1)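 Each reported value is a median over duplicate plates. It expresses relative viability: treated-well nuclei count divided by vehicle-well nuclei count. Lung cancer cell lines in 1536-well plates were dosed by pin tool a day after seeding, alone with one drug or with a fixed anchor-drug dose plus five library-drug doses (not always all listed) in √10 steps, and nuclei were counted after 5 days.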

Cell Line | relative viability
COR-L 105 | 0.552
LCLC-97TM1 | 0.816
NCI-H520 | 0.729
NCI-H2228 | 0.509
NCI-H23 | 0.58
HCC-827 | 0.61
NCI-H2347 | 0.556
LXF-289 | 0.767
NCI-H1666 | 0.993
RERF-LC-KJ | 0.647
NCI-H650 | 0.495
NCI-H322M | 0.869
NCI-H596 | 0.459
201T | 0.938

same assay, conditions: first compound 0.03162 µM

Cell Line | relative viability
NCI-H2087 | 0.769
NCI-H1734 | 0.781
LCLC-103H | 0.64
LU99A | 0.667
NCI-H460 | 0.594
NCI-H2170 | 0.814
SK-LU-1 | 0.618
NCI-H522 | 1.02
COR-L23 | 0.436
HCC-15 | 0.838
NCI-H1944 | 0.543
EMC-BAC-2 | 0.498
NCI-H1395 | 0.745
LC-2-ad | 0.703
NCI-H2085 | 0.73
NCI-H647 | 0.468
HARA | 0.568

Cell Line | relative viability
NCI-H3122 | 1.09
NCI-H358 | 0.653
CAL-12T | 0.585
COR-L 105 | 0.727
LCLC-97TM1 | 0.642
NCI-H520 | 0.712
NCI-H2228 | 0.511
NCI-H23 | 0.232
HCC-827 | 0.851
NCI-H2347 | 0.403
LXF-289 | 0.836
NCI-H1666 | 1.02
RERF-LC-KJ | 0.685
NCI-H650 | 0.479
NCI-H322M | 0.863
NCI-H596 | 0.685
201T | 0.934

same assay, conditions: first compound 0.1 µM

Cell Line | relative viability
NCI-H2087 | 0.613
NCI-H1734 | 0.728
LCLC-103H | 0.747
LU99A | 0.396
NCI-H460 | 0.685
NCI-H2170 | 0.806
SK-LU-1 | 0.682
NCI-H522 | 0.883
COR-L23 | 0.403
HCC-15 | 0.779
NCI-H1944 | 0.575
EMC-BAC-2 | 0.299
NCI-H1395 | 0.476
LC-2-ad | 0.758
NCI-H2085 | 0.76
NCI-H647 | 0.385
NCI-H3122 | 1.06

Cell Line | relative viability
NCI-H358 | 0.717
CAL-12T | 0.68
COR-L 105 | 0.879
LCLC-97TM1 | 0.699
NCI-H520 | 0.693
NCI-H2228 | 0.528
NCI-H23 | 0.406
HCC-827 | 0.768
NCI-H2347 | 0.55
LXF-289 | 0.827
NCI-H1666 | 1.01
RERF-LC-KJ | 0.595
NCI-H650 | 0.325
NCI-H322M | 0.748
NCI-H596 | 0.497
201T | 0.961

same assay, conditions: first compound 0.3162 µM

Cell Line | relative viability
NCI-H2087 | 0.815
NCI-H1734 | 0.707
LCLC-103H | 0.704
LU99A | 0.304
NCI-H460 | 0.65
NCI-H2170 | 0.662
SK-LU-1 | 0.563
NCI-H522 | 0.686
COR-L23 | 0.408
HCC-15 | 0.616
NCI-H1944 | 0.431
EMC-BAC-2 | 0.236
NCI-H1395 | 0.645
LC-2-ad | 0.854
NCI-H2085 | 0.648
NCI-H647 | 0.363
HARA | 0.507

Cell Line | relative viability
NCI-H3122 | 0.93
NCI-H358 | 0.664
CAL-12T | 0.535
COR-L 105 | 0.617
LCLC-97TM1 | 0.503
NCI-H520 | 0.557
NCI-H2228 | 0.564
NCI-H23 | 0.398
HCC-827 | 0.852
NCI-H2347 | 0.447
LXF-289 | 0.902
NCI-H1666 | 0.915
RERF-LC-KJ | 0.529
NCI-H650 | 0.303
NCI-H322M | 0.663
NCI-H596 | 0.523
201T | 0.952

same assay, conditions: first compound 1 µM

Cell Line | relative viability
NCI-H2087 | 0.161
NCI-H1734 | 0.455
LCLC-103H | 0.613
LU99A | 0.232
NCI-H460 | 0.219
NCI-H2170 | 0.454
SK-LU-1 | 0.411
NCI-H522 | 0.638
COR-L23 | 0.297
HCC-15 | 0.424
NCI-H1944 | 0.378
EMC-BAC-2 | 0.277
NCI-H1395 | 0.567
LC-2-ad | 0.549
NCI-H2085 | 0.549
NCI-H647 | 0.36
HARA | 0.251

Cell Line | relative viability
NCI-H3122 | 0.732
NCI-H358 | 0.503
CAL-12T | 0.321
COR-L 105 | 0.605
LCLC-97TM1 | 0.345
NCI-H520 | 0.368
NCI-H2228 | 0.45
NCI-H23 | 0.303
HCC-827 | 0.475
NCI-H2347 | 0.339
LXF-289 | 0.787
NCI-H1666 | 0.667
RERF-LC-KJ | 0.426
NCI-H650 | 0.232
NCI-H322M | 0.624
NCI-H596 | 0.416
201T | 0.828

compound: COc1cccc2cc(-c3nc([C@H]4CC[C@H](C(=O)O)CC4)n4ncnc(N)c34)[nH]c12 [OSI-027] + Nc1nc2[nH]cc(CCc3ccc(C(=O)N[C@@H](CCC(=O)O)C(=O)O)cc3)c2c(=O)[nH]1 [Pemetrexed] (partner 0.2 µM); test: as above; details: first compound 0.01 µM
Procedure, shortened: as §1

Cell Line | relative viability
NCI-H2087 | 0.696
NCI-H1734 | 0.416
LCLC-103H | 0.481
LU99A | 0.181
NCI-H460 | 0.0613
NCI-H2170 | 0.26
SK-LU-1 | 1.02
NCI-H522 | 1.04
COR-L23 | 0.194
HCC-15 | 0.221
NCI-H1944 | 0.657
EMC-BAC-2 | 0.385
NCI-H1395 | 0.736
LC-2-ad | 0.279
NCI-H2085 | 0.776
NCI-H647 | 0.159
HARA | 0.249

Cell Line | relative viability
NCI-H3122 | 0.207
NCI-H358 | 0.185
CAL-12T | 1.17
COR-L 105 | 1.22
LCLC-97TM1 | 0.178
NCI-H520 | 0.785
NCI-H2228 | 0.43
NCI-H23 | 0.617
HCC-827 | 0.259
NCI-H2347 | 0.438
LXF-289 | 0.939
NCI-H1666 | 0.853
RERF-LC-KJ | 0.466
NCI-H650 | 0.878
NCI-H322M | 0.602
NCI-H596 | 0.436
201T | 0.316

same assay, conditions: first compound 0.03162 µM

Cell Line | relative viability
NCI-H2087 | 0.674
NCI-H1734 | 0.436
LCLC-103H | 0.47
LU99A | 0.362
NCI-H460 | 0.0659
NCI-H2170 | 0.263
SK-LU-1 | 1.03
NCI-H522 | 0.956
COR-L23 | 0.194
HCC-15 | 0.239
NCI-H1944 | 0.691
EMC-BAC-2 | 0.493
NCI-H1395 | 0.826
LC-2-ad | 0.239
NCI-H2085 | 0.879
NCI-H647 | 0.173
HARA | 0.221

Cell Line | relative viability
NCI-H3122 | 0.198
NCI-H358 | 0.171
CAL-12T | 1.18
COR-L 105 | 1.18
LCLC-97TM1 | 0.207
NCI-H520 | 0.645
NCI-H2228 | 0.348
NCI-H23 | 0.757
HCC-827 | 0.23
NCI-H2347 | 0.439
LXF-289 | 0.841
NCI-H1666 | 0.905
RERF-LC-KJ | 0.48
NCI-H650 | 1.03
NCI-H322M | 0.608
NCI-H596 | 0.576
201T | 0.348

same assay, conditions: first compound 0.1 µM

Cell Line | relative viability
NCI-H2087 | 0.694
NCI-H1734 | 0.371
LCLC-103H | 0.481
LU99A | 0.173
NCI-H460 | 0.0561
NCI-H2170 | 0.289
SK-LU-1 | 0.869
NCI-H522 | 0.717
COR-L23 | 0.193
HCC-15 | 0.211
NCI-H1944 | 0.77
EMC-BAC-2 | 0.478
NCI-H1395 | 0.643
LC-2-ad | 0.273
NCI-H2085 | 0.797
NCI-H647 | 0.187
HARA | 0.231

Cell Line | relative viability
NCI-H3122 | 0.19
NCI-H358 | 0.176
CAL-12T | 1.22
COR-L 105 | 1.13
LCLC-97TM1 | 0.147
NCI-H520 | 0.596
NCI-H2228 | 0.322
NCI-H23 | 0.598
HCC-827 | 0.276
NCI-H2347 | 0.484
LXF-289 | 1.04
NCI-H1666 | 0.832
RERF-LC-KJ | 0.464
NCI-H650 | 0.836
NCI-H322M | 0.633
NCI-H596 | 0.463
201T | 0.313

same assay, conditions: first compound 0.3162 µM

Cell Line | relative viability
NCI-H2087 | 0.533
NCI-H1734 | 0.412
LCLC-103H | 0.446
LU99A | 0.239
NCI-H460 | 0.0523
NCI-H2170 | 0.325
SK-LU-1 | 0.689
NCI-H522 | 0.858
COR-L23 | 0.181
HCC-15 | 0.227
NCI-H1944 | 0.59
EMC-BAC-2 | 0.472
NCI-H1395 | 0.74
LC-2-ad | 0.283
NCI-H2085 | 0.841
NCI-H647 | 0.157
HARA | 0.227

Cell Line | relative viability
NCI-H3122 | 0.207
NCI-H358 | 0.132
CAL-12T | 0.976
COR-L 105 | 1.04
LCLC-97TM1 | 0.186
NCI-H520 | 0.487
NCI-H2228 | 0.327
NCI-H23 | 0.47
HCC-827 | 0.264
NCI-H2347 | 0.404
LXF-289 | 0.974
NCI-H1666 | 0.831
RERF-LC-KJ | 0.463
NCI-H650 | 0.671
NCI-H322M | 0.556
NCI-H596 | 0.475
201T | 0.332

same assay, conditions: first compound 1 µM

Cell Line | relative viability
NCI-H2087 | 0.338
NCI-H1734 | 0.386
LCLC-103H | 0.52
LU99A | 0.159
NCI-H460 | 0.0728
NCI-H2170 | 0.305
SK-LU-1 | 0.385
NCI-H522 | 0.664
COR-L23 | 0.197
HCC-15 | 0.231
NCI-H1944 | 0.519
EMC-BAC-2 | 0.392
NCI-H1395 | 0.74
LC-2-ad | 0.271
NCI-H2085 | 0.795
NCI-H647 | 0.211
HARA | 0.264

Cell Line | relative viability
NCI-H3122 | 0.243
NCI-H358 | 0.151
CAL-12T | 0.527
COR-L 105 | 0.999
LCLC-97TM1 | 0.15
NCI-H520 | 0.263
NCI-H2228 | 0.208
NCI-H23 | 0.395
HCC-827 | 0.242
NCI-H2347 | 0.427
LXF-289 | 0.837
NCI-H1666 | 0.787
RERF-LC-KJ | 0.375
NCI-H650 | 0.367
NCI-H322M | 0.519
NCI-H596 | 0.504
201T | 0.305
